Tested on: S. aureus
Assay: Pathogen inactivation in plasma spiked with S. aureus: combinations of low-frequency sonication, UV light and riboflavin
Format: cell-based
Settings: for growth of S. aureus after treatment: n = 6

Cc1cc2nc3c(=O)[nH]c(=O)nc-3n(C[C@H](O)[C@H](O)[C@H](O)CO)c2cc1C [riboflavin]
growth of S. aureus after treatment (Riboflavin-containing sample (50 µmol/L, plasma) + low-frequency sonication 30 KHz, no illumination, table row 0.27 J/mL, 10 min): 5.84 ± 0.18 log | growth of S. aureus after treatment (Riboflavin-containing sample (50 µmol/L, plasma) + low-frequency sonication 30 KHz, no illumination, table row 0.54 J/mL, 20 min): 5.72 ± 0.30 log | growth of S. aureus after treatment (Riboflavin-containing sample (50 µmol/L, plasma) + low-frequency sonication 30 KHz, no illumination, table row 0.81 J/mL, 30 min): 5.67 ± 0.32 log | growth of S. aureus after treatment (Sonication (30 KHz) + UV light (311 ± 50 nm) + riboflavin 50 µmol/L in plasma, light energy 0.27 J/mL, 10 min): 4.48 ± 0.46 log | growth of S. aureus after treatment (Sonication (30 KHz) + UV light (311 ± 50 nm) + riboflavin 50 µmol/L in plasma, light energy 0.54 J/mL, 20 min): 2.04 ± 0.71 log | growth of S. aureus after treatment (Sonication (30 KHz) + UV light (311 ± 50 nm) + riboflavin 50 µmol/L in plasma, light energy 0.81 J/mL, 30 min): 1.28 ± 0.66 log | growth of S. aureus after treatment (UV light (311 ± 50 nm) + riboflavin 50 µmol/L in plasma, no sonication, light energy 0.27 J/mL, 10 min): 5.41 ± 0.029 log | growth of S. aureus after treatment (UV light (311 ± 50 nm) + riboflavin 50 µmol/L in plasma, no sonication, light energy 0.54 J/mL, 20 min): 5.66 ± 0.09 log | growth of S. aureus after treatment (UV light (311 ± 50 nm) + riboflavin 50 µmol/L in plasma, no sonication, light energy 0.81 J/mL, 30 min): 5.23 ± 0.16 log | pathogen inactivation effect (in words) (UV light + riboflavin group, 0.81 J/mL): no inactivation effect | effect of combining low-frequency sonication with riboflavin photochemical method (in words) (low-frequency sonication + UV light + riboflavin): synergistic effect | pathogen inactivation effect (in words) (sonication + UV light + riboflavin group): strong pathogen inactivation effect | pathogen inactivation effect (in words) (sonication + riboflavin group, 0.81 J/mL): no inactivation effect
